Tested on: Cytospora
Test: Antifungal activity against Cytospora mandshurica at 50 ug/ml after 5 days by poison plate technique
Type: functional
Details: 120 h

SMILES | inhibition at 50 µg/mL
COc1ccccc1-c1nnc(S(C)(=O)=O)o1 | 91.3%
Cc1ccccc1-c1nnc(S(C)(=O)=O)o1 | 99.3%

Source: ChEMBL document CHEMBL3046606, “Synthesis and antifungal activity of novel sulfone derivatives containing 1,3,4-oxadiazole moieties” (Molecules, 2011)
